Source: patent US20240368174A1, “Antiviral Heterocyclic Compounds” (Enanta Pharmaceuticals, Inc., priority 2023, published 2024)
pEC50: −log10 of the molar value.

Legend:
[1] = system: HMPV clinical isolate A2 strain TN 94-49; experiment: HMPV antiviral assay, Method 2 (LLC-MK2 cells with CP-100-356, ATP-Lite); type: cell-based; conditions: human metapneumovirus; hMPV A2 TN/94-49, LLC-MK2 cells with CP-100-356, Method 2
In short: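 LLC-MK2 rhesus kidney cells (5,000/well) infected in suspension with HMPV A2 TN 94-49 at MOI 0.16, in serum-free medium with final 2 μg/mL TPCK-trypsin and 2 μM CP-100-356. Compounds tested in duplicate from 200 nM, 2.5-fold, 10 points; 7 days at 37 °C. Cell health by ATP-Lite luminescence; EC50 by four-parameter fit.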

[2] = system: HMPV clinical isolate A2 strain TN 94-49; experiment: HMPV antiviral assay, Method 1 (LLC-MK2 cells, ATP-Lite); type: cell-based; conditions: human metapneumovirus, hMPV A2 TN/94-49, LLC-MK2 cells
In short: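 LLC-MK2 cells (5,000/well) infected in suspension with HMPV A2 TN 94-49 at MOI 0.005 in serum-free OptiMEM with 2 μg/mL final TPCK-trypsin, compounds in duplicate from 2 μM top, 2.5-fold, 10 points. After 7 days at 37° C, cell health by ATP-Lite luminescence normalised to virus and cell controls; EC50 from four-parameter fit.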

[3] = system: genotype A, “Long” strain RSV; experiment: RSV-A assay (CPE, ATPlite readout in Hep-2 cells); type: cell-based, Human respiratory syncytial virus; conditions: human respiratory syncytial virus, activity class
Source text: Hep-2 cells, (originally derived from tumors grown in irradiated-cortisonised weanling rats that had been injected with epidermoid carcinoma tissue from the larynx of a person, but later found to be indistinguishable from HeLa cells by PCR DNA analysis), were used for the culturing of genotype A, “Long” strain RSV. Flasks were inoculated with RSV and viral stocks were collected once cytopathic effect (CPE) was greater than 90%. Viral stocks in 25% sucrose media were snap frozen using liquid nitrogen to increase viral stability. Viral stock titers were quantified by tissue culture infectious dose 50% (TCID50) using 8,000 cells per well and 3-fold viral dilutions across a 96-well plate, cultured for 4 days. Viral stock titers were also quantified by a plaque forming unit assay, as described elsewhere.
Following extensive parameter testing, the final assay is run as follows: Hep-2 cells are seeded into the inner 60 wells of a 96-well plate at 8,000 cells per well in a volume of 50 μL using Growth Media (DMEM without phenol red, 1% L-Glut, 1% Penn/Strep, 1% nonessential amino acids, 10% heat-inactivated FBS). 2-fold serial dilutions of control and test compounds are added to the wells in duplicate in a total volume of 25 μL. Viral stock is then added to the wells at a multiplicity of infection (MOI) of 0.1 in a volume of 25 μL, bringing the total volume of each well to 100 μL. The MOI is calculated using the PFU/mL, or TCID50 if unavailable. Each 96-well plate has a control column of 6 wells with cells and virus but no compound (negative control, max CPE), a column with cells but no compound or virus (positive control, minimum CPE), and a column with no cells or virus or compound (background plate/reagent control). The control wells with cells but no virus are given an additional 25 μL of growth media containing an equal quantity of sucrose as those wells receiving the viral stock in order to keep consistent in media and volume conditions. The outer wells of the plate are filled with 125 μL of moat media (DMEM, 1% Penn/Strep) to act as a thermal and evaporative moat around the test wells. Following a 5-day incubation period, the plates are read using ATPlite (50 uL added per well), which quantifies the amount of ATP (a measure of cell health) present in each well. Assay plates are read using the Envision luminometer. […] EC50 ranges are as follows: A<0.2 μM; B>0.2 μM.

pEC50 [1] | pEC50 [2] | pEC50 [3] | Compound
> 6.70 | > 6.30 | – | COc1cc(C(=O)NC[C@@](O)(c2cccc(F)c2)c2cc3c(c(-c4cc(C(F)(F)F)c(F)cc4F)n2)OC[C@]3(C)C(N)=O)cc2cn(C3CC3)nc12 [Example 295]
> 6.70 | > 6.30 | – | COc1cc(C(=O)NC[C@@](O)(c2ccccc2)c2cc3c(c(-c4cc(C(F)F)c(F)cc4F)n2)OC[C@]3(C)C(N)=O)cc2cn(C3(F)CC3)nc12 [Example 298]
> 6.70 | > 6.30 | – | COc1cc(C(=O)NC[C@@](O)(c2ccccc2)c2cc3c(c(-c4cc(C(F)F)c(F)cc4F)n2)OC[C@]3(C)C(N)=O)cc2oc(C3CC3)nc12 [Example 299]
– | – | > 6.70 | COc1cc(C(=O)NC[C@](O)(c2cc3c(c(-c4ccnc(C(F)(F)F)c4Cl)n2)OC[C@]3(C)C(N)=O)C2CC2)cc2cn(C3CC3)nc12 [Example 419]
– | – | > 6.70 | COc1cc(C(=O)NC[C@](O)(c2cc3c(c(-c4cc(C(F)(F)F)ncc4F)n2)OC[C@]3(C)C(N)=O)C(F)(F)F)cc2cn(C3CC3)nc12 [Example 425]
– | – | > 6.70 | COc1cc(C(=O)NC[C@](O)(c2cc3c(c(-c4ccnc(C)c4Cl)n2)OC[C@]3(C)C(N)=O)C2CC2)cc2cn(C3CC3)nc12 [Example 426]
– | – | > 6.70 | COc1cc(C(=O)NC[C@](O)(c2cc3c(c(-c4cc(C(F)F)ncc4Cl)n2)OC[C@]3(C)C(N)=O)C2CC2)cc2cn(C3CC3)nc12 [Example 437]
– | – | > 6.70 | COc1cc(C(=O)NC[C@](O)(c2cc3c(c(-c4ccnc(OC(F)F)c4Cl)n2)OC[C@]3(C)C(N)=O)C2CC2)cc2cn(C3CC3)nc12 [Example 438]
– | – | > 6.70 | COc1cc(C(=O)NC[C@](O)(c2cc3c(c(-c4cccc(OC(F)F)c4Cl)n2)OC[C@]3(C)C(N)=O)C2CC2)cc2cn(C3CC3)nc12 [Example 439]
> 6.70 | > 6.30 | – | COc1cc(C(=O)NC[C@@](O)(c2ccccn2)c2cc3c(c(-c4cc(Cl)c(F)cc4F)n2)OC[C@]3(C)C(N)=O)cc2cn(C3CC3)nc12 [Example 463]
> 6.70 | < 6.30 | – | COc1cc(C(=O)NCC(O)(c2cc3c(c(-c4cc(Cl)c(F)cc4F)n2)OC[C@]3(C)C(N)=O)c2cc(C(F)F)cs2)cc2cn(C3CC3)nc12 (some centres unmarked) [Example 468]
> 6.70 | > 6.30 | – | COc1cc(C(=O)NCC(O)(c2cc3c(c(-c4cc(Cl)c(F)cc4F)n2)OC[C@]3(C)C(N)=O)c2ccc(C)s2)cc2cn(C3CC3)nc12 (some centres unmarked) [Example 470]
> 6.70 | > 6.30 | – | COc1cc(C(=O)NC[C@](O)(c2cc3c(c(-c4cc(Cl)c(F)cc4F)n2)OC[C@]3(C)C(N)=O)c2cccs2)cc2cn(C3CC3)nc12 [Example 474]
> 6.70 | > 6.30 | – | COc1cc(C(=O)NC[C@](O)(c2cc3c(c(-c4cc(Cl)c(F)cc4F)n2)OC[C@]3(C)C(N)=O)c2nccs2)cc2cn(C3CC3)nc12 [Example 475]

Continued, molecule first:

Compound | pEC50 [1] | pEC50 [2] | pEC50 [3]
COc1cc(C(=O)NC[C@@](O)(c2cccc(F)c2)c2cc3c(c(-c4ccc5c(c4Cl)OC(F)(F)O5)n2)OC[C@]3(C)C(N)=O)cc2cn(C3(F)CC3)nc12 [Example 275] | > 6.70 | > 6.30 | –
COc1cc(C(=O)NC[C@@](O)(c2cccc(F)c2)c2cc3c(c(-c4ccc5c(c4Cl)OC(F)(F)O5)n2)OC[C@]3(C)C(N)=O)cc2cn(C(F)F)nc12 [Example 276] | > 6.70 | > 6.30 | –
COc1cc(C(=O)NC[C@@](O)(c2ccccc2)c2cc3c(c(-c4ccc(F)c(Cl)c4Cl)n2)OC[C@]3(C)C(N)=O)cc2oc(C)nc12 [Example 277] | > 6.70 | > 6.30 | –
COc1cc(C(=O)NC[C@@](O)(c2ccccc2)c2cc3c(c(-c4ccc(F)c(Cl)c4Cl)n2)OC[C@]3(C)C(N)=O)cc2oc(C3CC3)nc12 [Example 278] | > 6.70 | > 6.30 | –
COc1cc(C(=O)NC[C@@](O)(c2cccc(F)c2)c2cc3c(c(-c4ccc(F)c(Cl)c4Cl)n2)OC[C@]3(C)C(N)=O)cc2oc(C3CC3)nc12 [Example 280] | > 6.70 | > 6.30 | –
[2H]C([2H])([2H])c1nc2ccc(C(=O)NC[C@@](O)(c3cccc(F)c3)c3cc4c(c(-c5ccc(F)c(Cl)c5Cl)n3)OC[C@]4(C)C(N)=O)cc2o1 [Example 281] | > 6.70 | > 6.30 | –
[2H]C([2H])([2H])c1nc2ccc(C(=O)NC[C@@](O)(c3cccc(F)c3)c3cc4c(c(-c5ccc6c(c5Cl)OC(F)(F)O6)n3)OC[C@]4(C)C(N)=O)cc2o1 [Example 282] | > 6.70 | > 6.30 | –
C[C@]1(C(N)=O)COc2c1cc([C@@](O)(CNC(=O)c1ccc3nc(C4CC4)oc3c1)c1cccc(F)c1)nc2-c1ccc2c(c1Cl)OC(F)(F)O2 [Example 287] | > 6.70 | > 6.30 | –
COc1cc(C(=O)NC[C@@](O)(c2ccccc2)c2cc3c(c(-c4ccc(F)c(Cl)c4Cl)n2)OC[C@]3(C)C(N)=O)cc2cc(C)nnc12 [Example 289] | > 6.70 | > 6.30 | –
COc1cc(C(=O)NC[C@@](O)(c2ccccc2)c2cc3c(c(-c4ccc(F)c(Cl)c4Cl)n2)OC[C@]3(C)C(N)=O)cc2cc(C3CC3)nnc12 [Example 290] | > 6.70 | > 6.30 | –
COc1cc(C(=O)NC[C@@](O)(c2cccc(F)c2)c2cc3c(c(-c4cccc(Cl)c4Cl)n2)OC[C@]3(C)C(N)=O)cc2cn(C3(F)CC3)nc12 [Example 291] | > 6.70 | > 6.30 | –
COc1cc(C(=O)NC[C@@](O)(c2cccc(F)c2)c2cc3c(c(-c4cccc(Cl)c4Cl)n2)OC[C@]3(C)C(N)=O)cc2oc(C3CC3)nc12 [Example 292] | > 6.70 | > 6.30 | –
COc1cc(C(=O)NC[C@@](O)(c2cccc(F)c2)c2cc3c(c(-c4cccc(Cl)c4Cl)n2)OC[C@]3(C)C(N)=O)cc2oc(C)nc12 [Example 293] | > 6.70 | > 6.30 | –
COc1cc(C(=O)NC[C@@](O)(c2ccccc2)c2cc3c(c(-c4ccc(F)c(Cl)c4Cl)n2)OC[C@]3(C)C(N)=O)cc2cc(Cl)cnc12 [Example 294] | > 6.70 | > 6.30 | –
COc1cc(C(=O)NC[C@@](O)(c2cccc(F)c2)c2cc3c(c(-c4cc(C(F)(F)F)c(F)cc4F)n2)OC[C@]3(C)C(N)=O)cc2cn(C3(F)CC3)nc12 [Example 296] | > 6.70 | > 6.30 | –
COc1cc(C(=O)NC[C@@](O)(c2cccc(F)c2)c2cc3c(c(-c4cc(C(F)(F)F)c(F)cc4F)n2)OC[C@]3(C)C(N)=O)cc2oc(C3CC3)nc12 [Example 297] | > 6.70 | > 6.30 | –
COc1cc(C(=O)NC[C@](O)(c2cc3c(c(-c4ccnc5c4ccn5C)n2)OC[C@]3(C)C(N)=O)C2CC2)cc2cn(C3CC3)nc12 [Example 420] | – | – | > 6.70
COc1cc(C(=O)NC[C@](O)(c2cc3c(c(-c4ccnc5c4CCC5)n2)OC[C@]3(C)C(N)=O)C2CC2)cc2cn(C3CC3)nc12 [Example 421] | – | – | > 6.70
COc1cc(C(=O)NC[C@](O)(c2cc3c(c(-c4ccnc(Cl)c4Cl)n2)OC[C@]3(C)C(N)=O)C2CC2)cc2cn(C(F)F)nc12 [Example 422] | – | – | > 6.70
COc1cc(C(=O)NC[C@](O)(c2cc3c(c(-c4ccn(C)c(=O)c4Cl)n2)OC[C@]3(C)C(N)=O)C2CC2)cc2cn(C3CC3)nc12 [Example 423] | – | – | < 6.70
COc1cc(C(=O)NC[C@](O)(c2cc3c(c(-c4cc(C(F)(F)F)ncc4F)n2)OC[C@]3(C)C(N)=O)C(F)(F)F)cc2cn(C(F)F)nc12 [Example 424] | – | – | > 6.70
COc1cc(C(=O)NC[C@](O)(c2cc3c(c(-c4cc[nH]c(=O)c4Cl)n2)OC[C@]3(C)C(N)=O)C2CC2)cc2cn(C3CC3)nc12 [Example 436] | – | – | < 6.70
COc1cc(C(=O)NC[C@](O)(c2cc3c(c(-c4cccc(OC(F)(F)F)c4Cl)n2)OC[C@]3(C)C(N)=O)C2CC2)cc2cn(C3CC3)nc12 [Example 440] | – | – | > 6.70
COc1cc(C(=O)NC[C@](O)(c2cc3c(c(-c4ccnc(Cl)c4Cl)n2)OC[C@]3(C)C(N)=O)C2CC2)cc2cn(C3(F)CC3)nc12 [Example 441] | – | – | > 6.70
